For 36 molecules, cytotoxicity results are on record in ChEMBL document CHEMBL3507680, “University of Dundee, Gates Library screen for HepG2 cell viability”.

A short description of the series: Human HepG2 cell viability assay in 384 well format. It is filed as toxicity, cell-based. Further details: dose 125 nL, time 70.5 hour; cytotoxicity at 70.5 h: concentration not given beside the values. The settings on record: HepG2 cells, read-out: Inhibition.
Consider `O=C(c1cccs1)N1CC[C@@H]2[C@H]1CCC(=O)N2c1ccccc1`, for which the cytotoxicity at 70.5 h is -16.9%.

For the molecule `CC(=O)NCC(=O)N1CCN(Cc2cccnc2)c2ncccc2C1`, the cytotoxicity at 70.5 h is -15.1%. On to `CC(=O)NCC(=O)N1CCN(Cc2ccncc2)c2ncccc2C1`, for which the cytotoxicity at 70.5 h was 16.8%. Take `c1cc(CN2CCOCC3(CCNCC3)C2)ccn1`: the cytotoxicity at 70.5 h came to 23%. The result for `CCS(=O)(=O)NC1CCc2c(ccc(=O)n2CC2CC2)C1` (stereo unspecified) reads -7.75%; that for `COCC(=O)N1CCCC2(CCN(c3cncnc3)C2=O)C1` (stereo unspecified), -8.34%; that for `Cc1occc1C(=O)N1CCCC2(CCN(c3ccsc3)C2=O)C1` (stereo unspecified), -6.53%.

`COCC(=O)N1CCCC2(CCN(c3ccccc3)C2=O)C1` (stereo unspecified): the cytotoxicity at 70.5 h is -13.1%. The result for `COCCC(=O)N1CCC2(CN(Cc3cccc(F)c3)C2)C1` reads -7.85%. The result for `CN1CCN([C@H]2COC[C@@H]3CN(Cc4cccnc4)C[C@@H]32)CC1` reads -8.25%. As for `CCS(=O)(=O)NCC1Cn2nnc(-c3ccccc3)c2CO1` (stereo unspecified), the figure is -1.57%; as for `c1cnc(NCC2Cn3nnc(-c4ccsc4)c3CO2)nc1` (stereo unspecified), -8.81%; as for `c1cnc(NCC2Cn3nnc(-c4ccoc4)c3CO2)nc1` (stereo unspecified), -13.1%. Turning to `Cc1occc1C(=O)N1C[C@H](Oc2ccccn2)[C@H]2OCCC[C@H]21`, the cytotoxicity at 70.5 h is -10.8%.

Consider `Cc1ccc(C(=O)N2CC[C@H]3[C@@H]2CCC(=O)N3c2ccccc2)cn1`, for which the cytotoxicity at 70.5 h is -12.4%. Take `O=C(NCC1CC1)[C@H]1CN(Cc2nccs2)C[C@H]2OCC[C@@H]12`: the cytotoxicity at 70.5 h was -9.38%.

Consider `Cc1occc1C(=O)N1CCO[C@H]2[C@H](OCc3ccccn3)CC[C@@H]21`, for which the cytotoxicity at 70.5 h was -7.78%. As for `O=C([C@@H]1CN(Cc2nccs2)C[C@H]2OCC[C@H]21)N1CCOCC1`, the cytotoxicity at 70.5 h was -7.1%.

With `Cc1ncsc1CN1C[C@@H]2COC[C@]2(C(=O)NC(C)C)C1`, the cytotoxicity at 70.5 h is -11.1%. As for `O=C(c1cscn1)N1CCO[C@H]2[C@@H](Oc3ccccn3)CC[C@@H]21`, the figure is -10.4%.

For `Fc1ccc(N2CCOC3(COCCN(c4ncccn4)C3)C2)cc1` (stereo unspecified), the cytotoxicity at 70.5 h is -6.83%. As for `O=C(c1ccoc1)N1CCOC2(COCCN(c3ncccn3)C2)C1` (stereo unspecified), the figure is -7.67%; as for `O=C(NC1CC1)[C@@H]1C[C@@H]2CCN(Cc3ccccc3)C[C@@H]2O1`, 25.4%; as for `CC(C)NC1CCc2c(ccc(=O)n2CC2CC2)C1` (stereo unspecified), 4.51%. The result for `Cn1nnc2c1CCN(Cc1ccccn1)C2COCc1ccccc1` (stereo unspecified) reads 14.7%; that for `O=C([C@H]1CN(Cc2nccs2)C[C@H]2OCC[C@@H]12)N1CCCCO1`, -10.9%. As for `CN(Cc1cn2c(n1)CN(C1CCOCC1)CC2)Cc1ccco1`, the figure is 24.6%. As to `CN(Cc1cn2c(n1)CN(Cc1ccsc1)CC2)Cc1ccco1`, the cytotoxicity at 70.5 h was -6.14%.

Turning to `Cc1ccc2c(n1)N(CCN(C)C)CCN(C(=O)c1cccs1)C2`, the cytotoxicity at 70.5 h was -5.81%.

For the molecule `Fc1cccc(N2CCCC3(CN(Cc4nccs4)CCO3)C2)c1` (stereo unspecified), the cytotoxicity at 70.5 h is -13.6%. The result for `O=C(C1CCOC1)N1CCC2(CC1)COCCN(Cc1ccncc1)C2` (stereo unspecified) reads -11.2%. Regarding `CN(Cc1cn2c(n1)CN(Cc1nccs1)CC2)Cc1ccco1`, the cytotoxicity at 70.5 h was -7.68%.

Take `CN(Cc1cn2c(n1)CN(CC1CCOC1)CC2)Cc1ccco1` (stereo unspecified): the cytotoxicity at 70.5 h was 1.38%.

Regarding `CN(C)C(=O)CN1CC[C@@H]2O[C@@H](COCc3cccnc3)CC[C@@H]21`, the cytotoxicity at 70.5 h was -1.43%. For the molecule `COc1ccc(CN2C[C@@H]3COC[C@H](N4CCN(C)CC4)[C@@H]3C2)cc1`, the cytotoxicity at 70.5 h is -5.19%. The result for `c1cc(CN2CCOCC3(CCN(CC4CCOCC4)CC3)C2)ccn1` reads -7.05%.
